{"source": "patent US10960037B2", "about": "“Method of treating neurological conditions with extract of Nerium species or Thevetia species” (PHOENIX BIOTECHNOLOGY, INC., priority 2010, dated 2021)", "test_system": "5×-ARE-luciferase transcriptional reporter in primary corticostriatal neuronal co-cultures", "assay": "Nrf2 activation, 5×ARE-luciferase reporter assay", "assay_type": "cell-based, mouse", "settings": "7 h and 24 h treatment", "procedure": "Activation of the 5×-ARE luciferase reporter became stronger with an apparent left-shift in concentration-response for extended treatment over 24 h compared to 7 h. Fold-expression changes are expressed relative to the DMSO-carrier only condition (“0”) normalized to a co-transfected, constitutive Renilla luciferase control and set to a value of 1.\nPrimary corticostriatal neuronal co-cultures were prepared from E18 Sprague-Dawley rat or C57Bl/6 mouse embryos of either gender. For luciferase reporter assays, the Cignal Antioxidant Response Reporter kit (Qiagen) was used. The 5×ARE luciferase reporter mixture at 40:1 luciferase:Renilla plasmid was transfected into cortical and striatal neurons separately using an Amaxa electroporation device (Lonza). After electroporation, neurons were pooled and immediately plated into 96-well plates containing mature glial cultures. After culturing for 96 h, neuroprotective compositions were added at the indicated concentrations for 7 or 24 h prior to harvesting using Dual-Glo Luciferase Assay System protocol and reagents (Promega). Dual-wavelength luminescence was detected using a SpectraMax L microplate reader (Molecular Devices). Luciferase values were normalized to the internal Renilla control and fold-expression over the DMSO-only treatment control was calculated. At least 3 independent experiments were done using 4-6 biological replicates.", "data": [{"smiles": "CC1(C)CC[C@]2(C(=O)O)CC[C@]3(C)[C@H](C(=O)C=C4[C@@]5(C)C=C(C#N)C(=O)C(C)(C)[C@@H]5CC[C@]43C)[C@@H]2C1", "note": "[bardoxolone]", "values": [{"measurement": "induction of 5×-ARE-luciferase reporter", "value": "Concentration- and time-dependent induction"}]}]}
